Source: patent publication US9365522B2, “Pyrazole amide derivative” (AMGEN INC., priority 2015, dated 2016)

Assays:
human RORγ-LBD = biological target: T1, human RORγ-LBD (Homo sapiens, UniProt P51449); assay: ROR gamma coactivator peptide recruitment Alphascreen assay (RORγ-LBD binding to GRIP1 coactivator peptide); type: biochemical; details: 5 nM human RORγ-LBD, 30 nM 7-β-hydroxycholesterol, 50 nM biotinylated GRIP1 coactivator peptide, overnight incubation at room temperature; read-out: result (pIC50, RORγ coactivator peptide recruitment Alphascreen assay) (converted)
T1 construct: made in house; host or cells: E. coli (BL-21)
T1 sequence (P51449 262-518): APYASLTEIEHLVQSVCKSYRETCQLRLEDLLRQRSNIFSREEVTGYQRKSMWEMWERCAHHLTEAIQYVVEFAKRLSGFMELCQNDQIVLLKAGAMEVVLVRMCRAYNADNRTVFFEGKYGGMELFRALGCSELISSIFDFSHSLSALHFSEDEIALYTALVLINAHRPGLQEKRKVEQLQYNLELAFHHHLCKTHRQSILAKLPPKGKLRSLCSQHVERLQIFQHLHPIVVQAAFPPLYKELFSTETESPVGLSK
Source text: Alphascreen™ is a bead-based amplified homogenous luminescent proximity assay that can be used for measuring the effect of compounds on protein-protein interactions. When biological interactions bring donor and acceptor beads into close proximity, reactive oxygen, generated upon laser excitation of the donor beads, initiates a luminescence/fluorescence cascade in the acceptor beads that leads to a highly amplified signal that can be measured as light in the 520-620 nm range. When the acceptor and donor beads are not in proximity, the reactive oxygen decays and only a very low background signal is generated.
An in vitro assay to assess inhibition of RORγ binding to the coactivator GRIP1 was established using Alphascreen™ technology. The interaction between nuclear receptors (NR) and coactivator proteins is a key step in signal transduction from the receptor to the transcriptional machinery and can be measured in vitro using only the ligand binding domain of the nuclear receptor and a peptide containing a coactivator protein LXXLL nuclear receptor binding motif
For the RORγ construct used in the coactivator recruitment assay, nucleotides corresponding to the ligand binding domain (LBD) of wild type human RORγ (amino acids 262-518 of Genbank Accession No. NM_005060.3) were cloned into the pET24 expression vector (Novagen), downstream of in-frame N-terminal 6×His and Flag tag sequences. Recombinant 6×His:Flag-tagged human RORγ-LBD protein was expressed in E. coli (BL-21) and purified by affinity chromatography on a nickel Sepharose column, followed by anion exchange chromatography.
A 4× assay mixture of 6×His:Flag-tagged human RORγ-LBD with the agonist ligand 7-β-hydroxycholesterol was prepared in assay buffer (50 mM HEPES pH 7.4, BSA 0.05%, 150 mM NaCl, 5 mM MgCl2, 1 mM DTT, 0.01% Tween-20). For control wells a 4× mixture of 6×His:Flag-tagged human ROR gamma LBD alone was also prepared.
A 4× stock of biotinylated coactivator peptide containing the LXXLL motif from GRIP1 (Biotin-[…]) was prepared in assay buffer.
A 4×detection mixture of nickel chelate Alphascreen™ acceptor beads (PerkinElmer) and streptavidin Alphascreen™ donor beads (PerkinElmer) was prepared in assay buffer.
Compounds to be tested were arranged in a pre-dose 384-well mother plate serially diluted 1 in 2 over 22 columns, in 100% DMSO, at 40× the final test concentration, from a high concentration of 4 mM. DMSO with no compound was placed in control columns. The compounds were robotically dispensed directly into assay plates containing assay buffer to a 4× final test concentration.
Following compound addition, the 6×His:Flag-tagged human RORγ-LBD plus 7-β-hydroxycholesterol assay mixture, biotinylated coactivator peptide and detection mixture were added. Final assay conditions were 5 nM 6×His:Flag-tagged human RORγ-LBD, 30 nM 7-β-hydroxycholesterol, 50 nM biotinylated coactivator peptide, 2.5 ug/ml nickel acceptor beads and 10 ug/ml streptavidin donor beads. The final concentration of DMSO in the assay was 2.5%.
After overnight incubation at room temperature plates were read on and Envision™ plate reader (PerkinElmer).
Data was plotted and pIC50 values were calculated using the Genedata Screener™ data analysis suite (Genedata).

[1] = biological target: T2, ligand binding domain of human ROR gamma (Homo sapiens, UniProt P51449); assay: ROR gamma reporter gene assay (GAL4-RORγ LBD luciferase, Dual-Glo); type: cell-based; details: HEK293T cells transfected with pM-ROR gamma, 8 concentrations 3.5 nM to 10.5 μM, 24 h incubation; for IC50: read-out: result (pIC50, inhibition of RORγ transcriptional activity) (converted)
T2 construct: NM_001001523; expressed in transfected cells; host or cells: HEK293T
T2 sequence (P51449 247-497 isoform P51449-2): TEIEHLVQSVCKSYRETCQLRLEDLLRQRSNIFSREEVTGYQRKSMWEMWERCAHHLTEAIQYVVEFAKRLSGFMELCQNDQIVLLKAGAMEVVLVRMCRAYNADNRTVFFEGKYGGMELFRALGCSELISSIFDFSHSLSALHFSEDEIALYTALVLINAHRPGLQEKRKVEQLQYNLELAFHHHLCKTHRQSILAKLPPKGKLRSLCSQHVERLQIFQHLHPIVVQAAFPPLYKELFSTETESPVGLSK
Method in brief: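 HEK293T cells co-transfected with GAL4-DBD fused to human RORγ LBD (aa 247-497), 5×UAS firefly luciferase reporter and CMV-renilla, in charcoal-stripped serum.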

Molecule	IC50 (human RORγ-LBD)	also measured
COC(CN(CC(C)(C)C)C(=O)c1cnn([C@H]2CC[C@H](C(=O)O)CC2)c1C(F)(F)F)c1c(Cl)cc(C)cc1Cl (relative stereo) [Example 529, trans-4-(4-(((2R/S)-2-(2,6-dichloro-4-methylphenyl)-2-methoxyethyl)(2,2-dimethylpropyl)carbamoyl)-5-(trifluoromethyl)-1H-pyrazol-1-yl)cyclohexanecarboxylic acid]	63.1 nM	–
CC(C)[C@@H]1C[C@H](Cc2c(Cl)cncc2Cl)N(C(=O)c2cnn([C@H]3CC[C@](C)(C(=O)O)CC3)c2C(F)(F)F)C1 (single isomer, unassigned) [Example 701]	9.33 nM	–
CC(C)(C)CN(CC(=O)c1c(Cl)cncc1Cl)C(=O)c1cnn([C@H]2CC[C@H](C(=O)O)C(C)(C)C2)c1C(F)(F)F (single isomer, unassigned) [Example 785]	3.98 nM	–
C[C@]1(C(=O)O)CC[C@H](n2ncc(C(=O)N3C[C@@H](Oc4ccccc4)C[C@@H]3C(=O)c3c(Cl)cncc3Cl)c2C(F)(F)F)CC1 (single isomer, unassigned) [Example 796]	18200 nM	–
CC1(CN(CC(=O)c2c(Cl)cncc2Cl)C(=O)c2cnn([C@H]3CC[C@H](C(=O)O)C(C)(C)C3)c2C(F)(F)F)CCC1 (single isomer, unassigned) [Example 807]	45.7 nM	–
C[C@H]1C[C@@H](n2ncc(C(=O)N(CC(=O)c3c(Cl)cncc3Cl)CC(C)(C)C)c2C(F)(F)F)CC[C@@H]1C(=O)O (single isomer, unassigned) [Example 813]	6.03 nM	–
C[C@]1(C(=O)O)CC[C@H](n2ncc(C(=O)N3C[C@H](C4CCCCC4)C[C@@H]3C(=O)c3c(Cl)cncc3Cl)c2C(F)(F)F)CC1 (single isomer, unassigned) [Example 822]	5890 nM	–
C[C@]1(C(=O)O)CC[C@H](n2ncc(C(=O)N3C[C@H](C4CCCCC4)C[C@H]3C(=O)c3c(Cl)cncc3Cl)c2C(F)(F)F)CC1 (single isomer, unassigned) [Example 823]	9120 nM	–
CC(C)(C)CN(CC(=O)c1c(Cl)cncc1Cl)C(=O)c1cnn([C@H]2C[C@]3(C[C@H](C(=O)O)C3)C2)c1C(F)(F)F (single isomer, unassigned) [Example 837]	3.72 nM	–
C[C@H]1C[C@@](C)(C(=O)O)CCC1n1ncc(C(=O)N(CC(=O)c2c(Cl)cncc2Cl)CC(C)(C)C)c1C(F)(F)F (single isomer, unassigned) [Example 843]	5.89 nM	–
CC1(C)[C@@H]2C[C@H](N(CC(=O)c3c(Cl)cccc3Cl)C(=O)c3cnn([C@H]4C[C@@H](CC(=O)O)C4)c3C(F)(F)F)C[C@@H]21 (single isomer, unassigned) [Example 858]	2 nM	–
C[C@H]1C[C@@H](n2ncc(C(=O)N(CC(=O)c3c(Cl)cncc3Cl)CC(C)(C)C(F)(F)F)c2C(F)(F)F)CC[C@@H]1C(=O)O (single isomer, unassigned) [Example 879]	2.95 nM	–
Cc1cc(Cl)c(CCN(CC2(C)CCCCC2)C(=O)c2cnn(C3CCC(C(=O)O)CC3)c2C(F)(F)F)c(Cl)c1 (stereo in doubt) [Example 511, trans-4-(4-((2-(2,6-dichloro-4-methylphenyl)ethyl)((1-methylcyclohexyl)methyl)carbamoyl)-5-(trifluoromethyl)-1H-pyrazol-1-yl)cyclohexanecarboxylic acid]	1.86 nM	–
Cc1cc(Cl)c(CCN(CC(C)(C)C)C(=O)c2cnn(C3CCC(C(=O)O)CC3)c2C(F)(F)F)c(Cl)c1 (stereo in doubt) [Example 512, trans-4-(4-((2-(2,6-dichloro-4-methylphenyl)ethyl)(2,2 - dimethylpropyl)carbamoyl)-5-(trifluoromethyl)-1H-pyrazol-1-yl)cyclohexanecarboxylic acid]	7.24 nM	–
Cc1cc(Cl)c(C(=O)CN(C(=O)c2cnn(C3CCC(C(=O)O)CC3)c2C(F)(F)F)C2CCC(C)(C)CC2)c(Cl)c1 (stereo in doubt) [Example 516, trans-4-(4-((2-(2,6-dichloro-4-methylphenyl)-2-oxoethyl)(4,4-dimethylcyclohexyl)carbamoyl)-5-(trifluoromethyl)-1H-pyrazol-1-yl)-1-cyclohexanecarboxylic acid]	6.03 nM	–
CC1(C)[C@@H]2C[C@H](N(CC(N)c3c(F)cccc3Cl)C(=O)c3cnn([C@H]4CC[C@](C)(C(=O)O)CC4)c3C(F)(F)F)C[C@@H]21 (stereo partly drawn) [Example 409, trans-4-(4-((2-amino-2-(2-chloro-6-fluorophenyl)ethyl)((1R,3r,5S)-6,6-dimethylbicyclo[3.1.0]hexan-3-yl)carbamoyl)-5-(trifluoromethyl)-1H-pyrazol-1-yl)-1-methylcyclohexanecarboxylic acid]	–	IC50 [1]: 776000 pM
Cc1nccnc1C(O)CN(C(=O)c1cnn([C@H]2CC[C@](C)(C(=O)O)CC2)c1C(F)(F)F)[C@H]1C[C@@H]2[C@H](C1)C2(C)C (stereo partly drawn) [Example 410, trans-4-(4-(((1R,3r,5S)-6,6-dimethylbicyclo[3.1.0]hexan-3-yl)(2-hydroxy-2-(3-methylpyrazin-2-yl)ethyl)carbamoyl)-5-(trifluoromethyl)-1H-pyrazol-1-yl)-1-methylcyclohexanecarboxylic acid]	–	IC50 [1]: 2.14e+06 pM
CC1(C)[C@@H]2C[C@H](N(CC(O)c3ccsc3Cl)C(=O)c3cnn([C@H]4CC[C@](C)(C(=O)O)CC4)c3C(F)(F)F)C[C@@H]21 (stereo partly drawn) [Example 411, trans-4-(4-((2-(2-chlorothiophen-3-yl)-2-hydroxyethyl)((1R,3r,5S)-6,6-dimethylbicyclo[3.1.0]hexan-3-yl)carbamoyl)-5-(trifluoromethyl)-1H-pyrazol-1-y1)-1-methylcyclohexanecarboxylic acid]	–	IC50 [1]: 224000 pM
O=C(c1c(C(F)(F)F)nn([C@H]2CC[C@H](C(=O)O)CC2)c1C(F)(F)F)N(CCc1c(Cl)cncc1Cl)Cc1ccc(F)cc1 [Example 412, trans-4-(4-(2-(3,5-dichloropyridin-4-yl)ethyl-((4-fluorophenyl)methyl)carbamoyl)-3,5-bis(trifluoromethyl)pyrazol-1-yl)cyclohexane-1-carboxylic acid]	–	IC50 [1]: 1.12e+06 pM
cis-3-(4-((2-(3,5-dichloropyridin-4-yl)-2- oxoethyl)(4-fluorobenzyl)carbamoyl)-5- (trifluoromethyl)-1H-pyrazol-1-yl)-1- fluorocyclohexanecarboxylic acid [Example 83]	–	result (pIC50, inhibition of RORγ transcriptional activity) [1]: 5.78
trans-4-(4-((2-(3-chloro-5-fluoropyridin-4-yl)- 2-oxoethyl)-(2,2-dimethylbutyl)carbamoyl)-5- (trifluoromethyl)pyrazol-1-yl)-1- methylcyclohexane-1-carboxylic acid [Example 337]	–	result (pIC50, inhibition of RORγ transcriptional activity) [1]: 7.20
